# From patent publication US6326139A (priority 1997, dated 2001)
# Experiments:
# [1] = in vivo; cited from earlier work
# BuChE L^286 K = BuChE L^286 K (Homo sapiens, UniProt P06276, L314K); assay: Reactivation by PAM of DFP-inhibited enzyme; assay type: biochemical
# Description: (§1) and 1 μM DFP. The pseudo-first order rate constant for reactivation, […]
# [2] = system: Chimera of human AChE and BuChE; assay: Reactivation by PAM of DFP-inhibited enzyme; assay type: biochemical
# Description: as §1
# DIP-BuChE = target: T1, DIP-BuChE (Homo sapiens, UniProt P06276); assay: Reactivation by PAM of DFP-inhibited enzyme; assay type: biochemical
# T1 construct: made in house; host or cells: Xenopus oocytes (microinjected in vitro transcribed mRNA)
# Description: as §1
# AChE (E5) = AChE (E5) (Homo sapiens, UniProt P22303)
# Description: (§2) Single-step enrichment for AChE or BuChE on immobilized antibody: Monoclonal mouse anti-human serum BuChE (53-4) or anti-human ACHE (101-1) antibodies (Liao et al., 1993), were adsorbed to microliter plates (Nunc, Roskilde, Denmark) at […] in 0.1 M carbonate buffer, pH 9.6, for at least four hours at room temperature. Plates were then washed three times in PBS-T buffer (144 mM NaCl, 20 mM Na phosphate, pH 7.4, 0.05% Tween-20). Free binding sites on the well surface of the microliter plate were blocked with PBS-T for one hour at 37° C. […] Microinjected oocyte homogenates containing the enzyme were then added at a dilution of 1:20 in PBS-T or at a concentration of 100 mIU/ml in PBS-T for at least 3 hours at room temperature with agitation. Plates were washed three times with PBS-T before use. Inactivation was performed at pH 7.4 in order to facilitate comparison with similar studies in the literature.
# (§3) and 1 μM DFP. The pseudo-first order rate constant for reactivation,
# (§4) ^a True first order rate constants for reactivation (kr) and […]
# AChE (E6) = AChE (E6) (Homo sapiens, UniProt P22303)
# Description: as §2, §3, §4
# BuChE D^70 G + S^425 P = assay: Reactivation by PAM of DFP-inhibited enzyme; assay type: biochemical, human; conditions: 1 mM PAM; pseudo-first order
# Description: as §1
# [3] = system: BuChE D^70 G + Y^114 H + S^425 P; assay: Reactivation by PAM of DFP-inhibited enzyme; assay type: biochemical, human
# Description: as §1
# BuChE D^70 G + Y^114 H = assay: Reactivation by PAM of DFP-inhibited enzyme; assay type: biochemical, human; conditions: 1 mM PAM; pseudo-first order
# Description: as §1
# BuChE D^70 G = assay: Reactivation by PAM of DFP-inhibited enzyme; assay type: biochemical, human
# Description: as §1
# BuChE F^329 C = assay: Reactivation by PAM of DFP-inhibited enzyme; assay type: biochemical, human; conditions: 1 mM PAM; pseudo-first order
# Description: as §1
# BuChE F^329 D = assay: Reactivation by PAM of DFP-inhibited enzyme; assay type: biochemical, human; conditions: 1 mM PAM; pseudo-first order
# Description: as §1
# BuChE F^329 Q = assay: Reactivation by PAM of DFP-inhibited enzyme; assay type: biochemical, human; conditions: 1 mM PAM; pseudo-first order
# Description: as §1
# BuChE F^329 R = assay: Reactivation by PAM of DFP-inhibited enzyme; assay type: biochemical, human; conditions: 1 mM PAM; pseudo-first order
# Description: as §1
# BuChE L^286 D = assay: Reactivation by PAM of DFP-inhibited enzyme; assay type: biochemical, human; conditions: 1 mM PAM; pseudo-first order
# Description: as §1
# BuChE L^286 Q = assay: Reactivation by PAM of DFP-inhibited enzyme; assay type: biochemical, human; conditions: 1 mM PAM; pseudo-first order
# Description: as §1
# BuChE L^286 R = assay: Reactivation by PAM of DFP-inhibited enzyme; assay type: biochemical, human; conditions: 1 mM PAM; pseudo-first order
# Description: as §1
# BuChE S^425 P = assay: Reactivation by PAM of DFP-inhibited enzyme; assay type: biochemical, human; conditions: 1 mM PAM; pseudo-first order
# Description: as §1
# [4] = system: D^70 G BuChE in tandem with one or two additional natural mutations; assay: Reactivation by 2-PAM of DFP-inactivated enzyme; assay type: biochemical, human
# Description: Single-step enrichment for AChE or BuChE on immobilized antibody: Monoclonal mouse anti-human serum BuChE (53-4) or anti-human ACHE (101-1) antibodies (Liao et al., 1993), were adsorbed to microliter plates (Nunc, Roskilde, Denmark) at 0.5 pg/ml in 0.1 M carbonate buffer, pH 9.6, for at least four hours at room temperature. Plates were then washed three times in PBS-T buffer (144 mM NaCl, 20 mM Na phosphate, pH 7.4, 0.05% Tween-20). Free binding sites on the well surface of the microliter plate were blocked with PBS-T for one hour at 37° C. […] Microinjected oocyte homogenates containing the enzyme were then added at a dilution of 1:20 in PBS-T or at a concentration of 100 mIU/ml in PBS-T for at least 3 hours at room temperature with agitation. Plates were washed three times with PBS-T before use. Inactivation was performed at pH 7.4 in order to facilitate comparison with similar studies in the literature.
# [5] = true first order, 0.1 to 0.6 mM PAM
# T1 sequence (P06276 29-602): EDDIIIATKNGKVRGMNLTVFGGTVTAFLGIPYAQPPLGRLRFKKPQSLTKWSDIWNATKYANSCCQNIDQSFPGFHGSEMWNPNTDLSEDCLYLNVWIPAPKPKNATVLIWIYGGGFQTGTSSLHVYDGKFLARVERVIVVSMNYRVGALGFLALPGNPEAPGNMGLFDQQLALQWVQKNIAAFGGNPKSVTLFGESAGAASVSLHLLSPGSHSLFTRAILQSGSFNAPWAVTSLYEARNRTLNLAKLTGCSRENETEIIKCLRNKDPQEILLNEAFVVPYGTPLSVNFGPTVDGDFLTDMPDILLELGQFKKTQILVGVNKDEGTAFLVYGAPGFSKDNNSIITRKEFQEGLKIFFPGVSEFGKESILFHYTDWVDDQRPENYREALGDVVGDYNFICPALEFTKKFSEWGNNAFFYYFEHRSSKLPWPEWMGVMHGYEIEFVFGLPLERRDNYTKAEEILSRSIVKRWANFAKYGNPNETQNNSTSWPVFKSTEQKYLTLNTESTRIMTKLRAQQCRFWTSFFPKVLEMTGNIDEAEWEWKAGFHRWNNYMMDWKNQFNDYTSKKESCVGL
# BuChE L^286 K, sequence (P06276 29-602 L314K limits assumed): as the sequence (P06276 29-602) above, with L286K counted along it
# AChE (E5), sequence (P22303-4 with tags, fused parts or gaps limits assumed): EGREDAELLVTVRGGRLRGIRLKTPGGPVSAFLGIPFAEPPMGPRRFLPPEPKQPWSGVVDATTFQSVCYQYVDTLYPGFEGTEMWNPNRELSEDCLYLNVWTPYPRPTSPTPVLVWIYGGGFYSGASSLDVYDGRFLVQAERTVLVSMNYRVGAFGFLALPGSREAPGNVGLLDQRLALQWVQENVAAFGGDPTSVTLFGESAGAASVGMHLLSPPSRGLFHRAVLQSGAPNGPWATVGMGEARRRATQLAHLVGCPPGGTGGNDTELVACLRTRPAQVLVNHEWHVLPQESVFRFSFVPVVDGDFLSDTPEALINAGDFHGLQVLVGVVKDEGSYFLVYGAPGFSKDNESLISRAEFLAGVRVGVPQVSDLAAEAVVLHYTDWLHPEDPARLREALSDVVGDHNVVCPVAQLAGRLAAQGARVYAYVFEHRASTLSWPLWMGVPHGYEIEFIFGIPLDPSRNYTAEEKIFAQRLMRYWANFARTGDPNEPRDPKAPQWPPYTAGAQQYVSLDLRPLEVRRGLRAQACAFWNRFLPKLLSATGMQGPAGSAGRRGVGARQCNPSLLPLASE
# AChE (E6), sequence (P22303 32-614): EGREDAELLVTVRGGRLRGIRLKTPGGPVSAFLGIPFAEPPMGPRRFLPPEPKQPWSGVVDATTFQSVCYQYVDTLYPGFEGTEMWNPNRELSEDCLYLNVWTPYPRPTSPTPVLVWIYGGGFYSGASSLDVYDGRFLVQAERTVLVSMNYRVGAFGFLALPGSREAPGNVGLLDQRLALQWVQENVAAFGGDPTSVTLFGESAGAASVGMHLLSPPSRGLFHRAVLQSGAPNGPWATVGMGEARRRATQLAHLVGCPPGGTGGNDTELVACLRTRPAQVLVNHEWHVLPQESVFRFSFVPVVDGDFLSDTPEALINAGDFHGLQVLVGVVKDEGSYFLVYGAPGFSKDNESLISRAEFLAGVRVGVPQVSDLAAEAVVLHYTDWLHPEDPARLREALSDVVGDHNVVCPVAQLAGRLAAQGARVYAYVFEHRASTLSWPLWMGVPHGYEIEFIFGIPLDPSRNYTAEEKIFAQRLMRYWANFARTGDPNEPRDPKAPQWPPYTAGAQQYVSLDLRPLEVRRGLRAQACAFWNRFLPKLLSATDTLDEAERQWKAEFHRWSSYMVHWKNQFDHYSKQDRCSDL
compound,measurement,setting,value
CCN(CC)C(=O)c1cccc(C)c1 [DEET],toxicity of anti-ChEs,[1],amplify the toxicity of anti-ChEs
"C[n+]1ccccc1C=NO [PAM, Pyridine-2-aldoxime methiodide]",k'r × 10^3,"BuChE L^286 K; 1 mM PAM, pseudo-first order",4 ± 1 min^-1
same,reduction in the pseudo-first order rate constant for reactivation,BuChE L^286 K; L^286 K,40 fold
same,kr × 10^3,BuChE L^286 K; [5],35 ± 27 min^-1
same,k'r × 10^3,"[2]; 1 mM PAM, pseudo-first order",40 ± 18 min^-1
same,reactivation rate constant lower than native BuChE,[2]; chimera,5 fold
same,kr × 10^3,[2]; [5],48 ± 20 min^-1
same,k'r × 10^3,"DIP-BuChE; 1 mM PAM, pseudo-first order",150 ± 30 min^-1
same,pseudo-first order reactivation rate constant higher than for either form of AChE,DIP-BuChE; DFP-inhibited BuChE,25 fold
same,kr × 10^3,DIP-BuChE; [5],220 ± 60 min^-1
same,k'r × 10^3,"AChE (E5); 1 mM PAM, pseudo-first order",8 ± 3 min^-1
same,kr × 10^3,AChE (E5); [5],10 ± 5 min^-1
same,k'r × 10^3,"AChE (E6); 1 mM PAM, pseudo-first order",6 ± 2 min^-1
same,kr × 10^3,AChE (E6); [5],7 ± 3 min^-1
same,k'r × 10^3,BuChE D^70 G + S^425 P,11 min^-1
same,k'r × 10^3,"[3]; 1 mM PAM, pseudo-first order",4 ± 1 min^-1
same,decrease in the rate of reactivation,[3]; all three mutations,40 fold
same,k'r × 10^3,BuChE D^70 G + Y^114 H,12 ± 5 min^-1
same,k'r × 10^3,"BuChE D^70 G; 1 mM PAM, pseudo-first order",32 ± 4 min^-1
same,reactivation rate lower than wild-type,"BuChE D^70 G; D^70 G, DFP-inactivated",5 fold
same,k'r × 10^3,BuChE F^329 C,14 ± 2 min^-1
same,k'r × 10^3,BuChE F^329 D,8 ± 1 min^-1
same,k'r × 10^3,BuChE F^329 Q,44 ± 15 min^-1
same,k'r × 10^3,BuChE F^329 R,43 min^-1
same,k'r × 10^3,BuChE L^286 D,120 ± 30 min^-1
same,k'r × 10^3,BuChE L^286 Q,120 ± 20 min^-1
same,k'r × 10^3,BuChE L^286 R,6 ± 3 min^-1
same,k'r × 10^3,BuChE S^425 P,134 ± 8 min^-1
same,rate of reactivation lower than wild type,[4],≤ 40 fold
